Assays:
[1] = cited from earlier work
[2] = target: P-glycoprotein (P-gp/ABCB1) (Homo sapiens, UniProt P08183); assay: Vesicular transport assay, P-gp-mediated NMQ uptake in HEK293 membrane vesicles; conditions: for P-gp-mediated NMQ transport, percentage of solvent control: 100 μM compound, NMQ 7 nM radio-labelled + 90 nM unlabelled, solvent control = 100% transport
Experimental: (§1) Human P-gp, BCRP, BSEP and MRP1-4 had previously been cloned into the Gateway pDONR221 vector. […] Gateway cloning was used to transfer the genes into a VSV-G improved pFastBacDual vector for mammalian cell transduction. The production of baculovirus was executed according to the Invitrogen Bac-to-Bac manual.
(§2) HEK293 cells were grown to 40% confluency in Dulbecco’s modified Eagle’s medium-GlutaMAX-I containing 10% foetal calf serum at 5% CO2 in 500 cm^2 triple flasks. Culture medium was removed and 25 mL of medium combined with 10 mL virus was added and incubated at RT for 20 min, followed by the addition of another 40 mL of complete medium including 5 mM sodium butyrate to enhance protein expression.
(§3) Cells were harvested three days post transduction by a 5-min centrifugation step at 3,000 g. Cells were resuspended in ice-cold hypotonic buffer (0.5 mM sodium phosphate, 0.1 mM EDTA, pH 7.0) containing protease inhibitors ([…] phenylmethylsulfonyl fluoride, 5 mg/ml aprotinin, 5 mg/ml leupeptin, 1 mg/ml pepstatin and 1 mg/ml E-64) and shaken at 4°C for 30 min. This lysate was centrifuged 100,000 xg for 30 min at 4°C, after which the pellet was homogenized in ice-cold TS buffer (10 mM Tris-HEPES and 250 mM sucrose, pH 7.4) supplemented with protease inhibitors described before using a tight-fitting Dounce homogenizer for 25 strokes. Two subsequent centrifugation steps at 4°C of firstly 20 min at 4,000 g followed by supernatant centrifugation for 60 min at 100,000 g ensured harvesting of the membrane fraction. The pellet was resuspended in ice-cold protease free TS buffer and passed 25 times through a 27-gauge needle to enhance membrane vesicle formation. Protein concentration in these vesicles was determined using the Bio-Rad protein assay, vesicles were flash-frozen in N2 and stored at -80°C.
(§4) A rapid filtration technique that has been described earlier was applied to evaluate uptake of transporter specific substrates into the vesicles; NMQ for P-gp, E1S for BCRP, E217βG for MRP1-4 and TCA for BSEP [20]. Briefly, 0.015-0.15 μCi of labelled substrate was combined with unlabelled substrates to a concentration of 0.1-1 μM in a 30 μL reaction mixture with 4 mM ATP, 10 mM MgCl2 and 7.5 μg total protein membrane vesicles in TS buffer. Transport was allowed by transfer of the plates to 37°C during 1–5 min, a time-point within the linear phase of time-dependent transport, as previously determined. Hereafter, the reaction was rapidly stopped by placing the plates back on ice and the addition of 150 μL ice-cold TS buffer. Samples were subsequently transferred to a 96-well filter plate that had been pre-incubated with TS buffer, and filtered using a multiscreen HTS-vacuum manifold filtration device (Millipore). Filters were washed and extracted, after which 2 mL scintillation fluid was added to each filter. Radioactive signal on the filters was determined by liquid scintillation counting. Negative controls included eYFP-transduced vesicles and AMP instead of ATP in the reaction mixture.
In the first screen, all anti-malarial compounds were added to the reaction mixture to evaluate transport inhibition at a concentration of 100 μM. […] Results were depicted and statistically analysed using Graphpad Prism, version 5.03. IC50 values were determined by nonlinear regression analysis of (log) inhibitor-response curves with variable slope.

[3] = system: T1, MRP3; assay: Vesicular transport assay, MRP3-mediated E217βG uptake in HEK293 membrane vesicles; assay type: biochemical, human; conditions: 100 μM compound; E217βG 150 nM; solvent control = 100% transport
T1 construct: made in house; host or cells: HEK293 cells transduced with baculovirus; isolated membrane vesicles
Source text: Some sequences did hold silent mutations of described polymorphisms.

[4] = target: T2, breast cancer resistance protein (BCRP/ABCG2) (Homo sapiens, UniProt Q9UNQ0); assay: Vesicular transport assay, BCRP-mediated estrone sulphate uptake in HEK293 membrane vesicles; conditions: for BCRP-mediated estrone sulphate transport, percentage of solvent control: 100 μM compound, estrone sulphate 74 nM, solvent control = 100% transport
T2 sequence (Q9UNQ0 1-655): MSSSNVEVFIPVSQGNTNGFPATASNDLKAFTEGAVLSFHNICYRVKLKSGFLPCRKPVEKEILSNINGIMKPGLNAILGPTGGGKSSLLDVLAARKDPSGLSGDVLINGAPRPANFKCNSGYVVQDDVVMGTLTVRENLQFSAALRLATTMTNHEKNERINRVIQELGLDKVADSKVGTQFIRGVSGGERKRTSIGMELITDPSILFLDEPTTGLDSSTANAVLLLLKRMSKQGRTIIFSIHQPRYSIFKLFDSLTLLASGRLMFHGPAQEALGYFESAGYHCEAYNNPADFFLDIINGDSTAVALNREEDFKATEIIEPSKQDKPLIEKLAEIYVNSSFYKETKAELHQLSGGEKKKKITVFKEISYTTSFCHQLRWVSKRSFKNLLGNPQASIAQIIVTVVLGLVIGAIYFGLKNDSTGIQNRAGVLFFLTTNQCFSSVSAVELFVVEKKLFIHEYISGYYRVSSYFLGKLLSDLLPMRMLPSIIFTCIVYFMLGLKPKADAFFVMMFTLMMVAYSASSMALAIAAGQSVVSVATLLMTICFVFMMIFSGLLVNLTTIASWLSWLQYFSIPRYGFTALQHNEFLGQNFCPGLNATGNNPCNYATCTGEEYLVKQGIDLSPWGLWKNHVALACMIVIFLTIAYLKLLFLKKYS
Experimental: as §1, §2, §3, §4
In the first screen, all anti-malarial compounds were added to the reaction mixture to evaluate transport inhibition at a concentration of 100 μM. […] When ATP-dependent uptake was reduced more than 66.7%, the compound was considered a potential inhibitor, and multiple concentrations were tested in the reaction mixture to determine the IC50 value. All concentrations were tested in duplicates or triplicates in two individual biological replicates containing vesicles of independent transductions. Results were depicted and statistically analysed using Graphpad Prism, version 5.03. IC50 values were determined by nonlinear regression analysis of (log) inhibitor-response curves with variable slope.

[5] = system: T3, bile salt export pump (BSEP/ABCB11); assay: Vesicular transport assay, BSEP-mediated taurocholic acid uptake in HEK293 membrane vesicles; assay type: biochemical, human; conditions: 100 μM compound; taurocholic acid 1 μM; solvent control = 100% transport
T3 construct: made in house; host or cells: HEK293 cells transduced with baculovirus; isolated membrane vesicles
Experimental: Cells were harvested three days post transduction by a 5-min centrifugation step at 3,000 g. Cells were resuspended in ice-cold hypotonic buffer (0.5 mM sodium phosphate, 0.1 mM EDTA, pH 7.0) containing protease inhibitors (100 mM phenylmethylsulfonyl fluoride, 5 mg/ml aprotinin, 5 mg/ml leupeptin, 1 mg/ml pepstatin and 1 mg/ml E-64) and shaken at 4°C for 30 min. This lysate was centrifuged 100,000 xg for 30 min at 4°C, after which the pellet was homogenized in ice-cold TS buffer (10 mM Tris-HEPES and 250 mM sucrose, pH 7.4) supplemented with protease inhibitors described before using a tight-fitting Dounce homogenizer for 25 strokes. Two subsequent centrifugation steps at 4°C of firstly 20 min at 4,000 g followed by supernatant centrifugation for 60 min at 100,000 g ensured harvesting of the membrane fraction. The pellet was resuspended in ice-cold protease free TS buffer and passed 25 times through a 27-gauge needle to enhance membrane vesicle formation. Protein concentration in these vesicles was determined using the Bio-Rad protein assay, vesicles were flash-frozen in N2 and stored at -80°C.
A rapid filtration technique that has been described earlier was applied to evaluate uptake of transporter specific substrates into the vesicles; NMQ for P-gp, E1S for BCRP, E217βG for MRP1-4 and TCA for BSEP [20]. Briefly, 0.015-0.15 μCi of labelled substrate was combined with unlabelled substrates to a concentration of 0.1-1 μM in a 30 μL reaction mixture with 4 mM ATP, 10 mM MgCl2 and 7.5 μg total protein membrane vesicles in TS buffer. Transport was allowed by transfer of the plates to 37°C during 1–5 min, a time-point within the linear phase of time-dependent transport, as previously determined [15–19]. Hereafter, the reaction was rapidly stopped by placing the plates back on ice and the addition of 150 μL ice-cold TS buffer. Samples were subsequently transferred to a 96-well filter plate that had been pre-incubated with TS buffer, and filtered using a multiscreen HTS-vacuum manifold filtration device (Millipore). […] Radioactive signal on the filters was determined by liquid scintillation counting. […]
All concentrations were tested in duplicates or triplicates in two individual biological replicates containing vesicles of independent transductions. […] IC50 values were determined by nonlinear regression analysis of (log) inhibitor-response curves with variable slope. […]

[6] = system: BCRP; conditions: cited from earlier work; for IC50: described as BCRP inhibitors, not substrates, read-out: IC50 of BCRP inhibition
[7] = set-up: method as in PMID 21600016; conditions: 12-hour measurement interval; co-administration with ATO/PG (250/100 mg) prophylaxis, one HIV patient; cited from earlier work
[8] = system: T4, MRP2; assay: Vesicular transport assay, MRP2-mediated E217βG uptake in HEK293 membrane vesicles; assay type: biochemical, human; conditions: 100 μM compound; E217βG 150 nM; solvent control = 100% transport
T4 construct: made in house; host or cells: HEK293 cells transduced with baculovirus; isolated membrane vesicles
Experimental: as §1
(§5) HEK293 cells were grown to 40% confluency in Dulbecco’s modified Eagle’s medium-GlutaMAX-I containing 10% foetal calf serum at 5% CO2 in 500 cm^2 triple flasks. […]
(§6) Cells were harvested three days post transduction by a 5-min centrifugation step at 3,000 g. […] Protein concentration in these vesicles was determined using the Bio-Rad protein assay, vesicles were flash-frozen in N2 and stored at -80°C.
(§7) A rapid filtration technique that has been described earlier was applied to evaluate uptake of transporter specific substrates into the vesicles; NMQ for P-gp, E1S for BCRP, E217βG for MRP1-4 and TCA for BSEP [20]. […] Transport was allowed by transfer of the plates to 37°C during 1–5 min, a time-point within the linear phase of time-dependent transport, as previously determined. […] Radioactive signal on the filters was determined by liquid scintillation counting. […]
(§8) In the first screen, all anti-malarial compounds were added to the reaction mixture to evaluate transport inhibition at a concentration of 100 μM. […] Results were depicted and statistically analysed using Graphpad Prism, version 5.03. […]

[9] = system: T5, MRP1; assay: Vesicular transport assay, MRP1-mediated E217βG uptake in HEK293 membrane vesicles; assay type: biochemical, human; conditions: 100 μM compound; E217βG 150 nM; solvent control = 100% transport
T5 construct: made in house; host or cells: HEK293 cells transduced with baculovirus; isolated membrane vesicles
Experimental: as §1, §5, §6, §7, §8

[10] = daily prophylactic dose of 250 mg

Chain of P-glycoprotein (P-gp/ABCB1) (P08183 whole entry): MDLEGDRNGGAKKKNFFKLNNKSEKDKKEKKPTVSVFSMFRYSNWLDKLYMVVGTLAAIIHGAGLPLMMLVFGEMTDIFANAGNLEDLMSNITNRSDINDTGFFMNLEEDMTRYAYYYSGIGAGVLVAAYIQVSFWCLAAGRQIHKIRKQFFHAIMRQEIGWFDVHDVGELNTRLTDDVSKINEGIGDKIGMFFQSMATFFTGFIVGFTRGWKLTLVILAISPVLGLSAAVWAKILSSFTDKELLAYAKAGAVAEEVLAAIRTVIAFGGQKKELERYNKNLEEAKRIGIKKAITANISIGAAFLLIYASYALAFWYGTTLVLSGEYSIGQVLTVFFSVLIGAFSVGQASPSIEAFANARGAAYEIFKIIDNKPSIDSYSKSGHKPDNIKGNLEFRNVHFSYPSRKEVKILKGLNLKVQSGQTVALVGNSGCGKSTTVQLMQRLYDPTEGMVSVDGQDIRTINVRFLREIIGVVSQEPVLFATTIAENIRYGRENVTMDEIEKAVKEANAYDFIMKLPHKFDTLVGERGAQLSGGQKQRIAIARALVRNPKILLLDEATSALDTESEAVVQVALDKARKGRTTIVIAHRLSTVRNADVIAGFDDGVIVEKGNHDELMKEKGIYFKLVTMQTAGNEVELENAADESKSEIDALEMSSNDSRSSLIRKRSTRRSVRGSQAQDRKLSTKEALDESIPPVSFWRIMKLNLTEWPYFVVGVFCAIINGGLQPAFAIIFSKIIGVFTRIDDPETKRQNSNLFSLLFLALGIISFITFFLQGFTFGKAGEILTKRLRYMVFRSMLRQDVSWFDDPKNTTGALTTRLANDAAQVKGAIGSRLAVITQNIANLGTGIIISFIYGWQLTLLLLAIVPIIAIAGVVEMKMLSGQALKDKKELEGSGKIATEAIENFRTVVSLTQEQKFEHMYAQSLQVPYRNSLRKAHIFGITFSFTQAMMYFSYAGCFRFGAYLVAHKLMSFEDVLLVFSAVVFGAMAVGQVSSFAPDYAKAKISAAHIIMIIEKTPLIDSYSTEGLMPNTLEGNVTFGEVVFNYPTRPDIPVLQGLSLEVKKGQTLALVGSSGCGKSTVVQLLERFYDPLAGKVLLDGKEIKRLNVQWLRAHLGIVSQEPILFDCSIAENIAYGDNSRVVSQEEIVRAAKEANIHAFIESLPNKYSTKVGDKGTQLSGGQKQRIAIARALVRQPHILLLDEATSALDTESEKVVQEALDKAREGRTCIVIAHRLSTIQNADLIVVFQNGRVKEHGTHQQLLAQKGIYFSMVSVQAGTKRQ

C=C[C@H]1C[N@@]2CC[C@H]1C[C@H]2[C@H](O)c1ccnc2ccc(OC)cc12 [Q, quinine]
Maximal plasma concentration ([1]; seven-day regimen of 10 mg/kg oral dose three times daily of quinine sulphate): 30 µM

C[C@H]1[C@@H](O)O[C@@H]2O[C@@]3(C)CC[C@H]4[C@H](C)CC[C@@H]1[C@@]24OO3 [DHA, dihydroartemisinin]
P-gp-mediated NMQ transport, percentage of solvent control [2]: 112% | MRP3-mediated estradiol 17-β-D glucuronide transport, percentage of solvent control [3]: 121% | BCRP-mediated estrone sulphate transport, percentage of solvent control [4]: 70% | BSEP-mediated taurocholic acid transport, percentage of solvent control [5]: 114%

CC(C)(C)NC(=O)[C@@H]1C[C@@H]2CCCC[C@@H]2CN1C[C@@H](O)[C@H](Cc1ccccc1)NC(=O)[C@H](CC(N)=O)NC(=O)c1ccc2ccccc2n1 [saquinavir]
IC50 [6]: 19.5 µM | Increase of AUC [7]: 274%

C[C@@H]1CC[C@H]2[C@@H](C)C(=O)O[C@@H]3O[C@@]4(C)CC[C@@H]1[C@]32OO4 [ART, artemisinin]
MRP2-mediated estradiol 17-β-D glucuronide transport, percentage of solvent control [8]: 151% | MRP3-mediated estradiol 17-β-D glucuronide transport, percentage of solvent control [3]: 122% | BSEP-mediated taurocholic acid transport, percentage of solvent control [5]: 117%

OC(c1cc(C(F)(F)F)nc2c(C(F)(F)F)cccc12)C1CCCCN1 (stereo not shown) [MQ, mefloquine]
IC50 [2]: 72 µM | P-gp-mediated NMQ transport, percentage of solvent control [2]: 30% | MRP1-mediated estradiol 17-β-D glucuronide transport, percentage of solvent control [9]: 50% | MRP3-mediated estradiol 17-β-D glucuronide transport, percentage of solvent control [3]: 70% | IC50 [4]: 18 µM | BCRP-mediated estrone sulphate transport, percentage of solvent control [4]: 8.5% | BSEP-mediated taurocholic acid transport, percentage of solvent control [5]: 72%

Cc1cc(C#N)cc(C)c1Oc1nc(Nc2ccc(C#N)cc2)nc(N)c1Br [etravirine]
IC50 [6]: 1 µM | Increase of AUC [7]: 55%

Cc1nnc(C(=O)NC(C)(C)c2nc(C(=O)NCc3ccc(F)cc3)c(O)c(=O)n2C)o1 [raltegravir]
BCRP inhibition (in words) [6]: do not inhibit BCRP

Cc1cccc(C)c1OCC(=O)N[C@@H](Cc1ccccc1)[C@@H](O)C[C@H](Cc1ccccc1)NC(=O)[C@H](C(C)C)N1CCCNC1=O [lopinavir]
BCRP-mediated transport inhibition (in words) [6]: inhibitors of BCRP-mediated transport

COC(=O)N[C@H](C(=O)N[C@@H](Cc1ccccc1)[C@@H](O)CN(Cc1ccc(-c2ccccn2)cc1)NC(=O)[C@@H](NC(=O)OC)C(C)(C)C)C(C)(C)C [atazinavir]
BCRP-mediated transport inhibition (in words) [6]: inhibitors of BCRP-mediated transport

O=C1Nc2ccc(Cl)cc2[C@@](C#CC2CC2)(C(F)(F)F)O1 [efavirenz]
BCRP-mediated transport inhibition (in words) [6]: inhibitors of BCRP-mediated transport

O=C1C(O)=C([C@H]2CC[C@H](c3ccc(Cl)cc3)CC2)C(=O)c2ccccc21 [ATO, atovaquone]
Maximal blood plasma concentration [1, 10]: around 14 μM | Maximal blood plasma concentration, range [1, 10]: 8 to 26 µM | MRP2-mediated estradiol 17-β-D glucuronide transport, percentage of solvent control [8]: 162% | MRP1-mediated estradiol 17-β-D glucuronide transport, percentage of solvent control [9]: 141% | IC50 [4]: 0.23 µM | BCRP-mediated estrone sulphate transport, percentage of solvent control [4]: 22% | BSEP-mediated taurocholic acid transport, percentage of solvent control [5]: 54%

CCN(CC)CCCC(C)Nc1ccnc2cc(Cl)ccc12 (stereo not shown) [CQ, chloroquine]
P-gp-mediated NMQ transport, percentage of solvent control [2]: 50% | BCRP-mediated estrone sulphate transport, percentage of solvent control [4]: 69%

[H]/N=C(\N/C(=N/[H])Nc1ccc(Cl)cc1)NC(C)C [PG, proguanil]
P-gp-mediated NMQ transport, percentage of solvent control [2]: 76% | IC50 [4]: 118 µM | BCRP-mediated estrone sulphate transport, percentage of solvent control [4]: 36%

CCCCN(CCCC)CC(O)c1cc(Cl)cc2c1-c1ccc(Cl)cc1/C2=C/c1ccc(Cl)cc1 (stereo not shown) [L, lumefantrine]
BCRP-mediated estrone sulphate transport, percentage of solvent control [4]: 44%

maraviroc
BCRP inhibition (in words) [6]: do not inhibit BCRP

— paper PMC4172838 (Malaria Journal, 2014)
